This is an account of results in US5006448A, “Photographic material and process” (Eastman Kodak Company, priority 1989, dated 1991).

The experiment is described as follows: Imbibition test of intrinsic inhibition strength of free inhibitors. To be noted: inhibitor prebath 5×10^-5 M, pH 10 carbonate buffer plus 0.1% dimethylformamide, 38° C., 2 min. The source says: Development inhibitors are generally released imagewise from an incorporated DIR compound during processing of the exposed photographic element. To evaluate the intrinsic inhibition strength of such inhibitors, independent of DIR release, an imbibition test is used. This involves imbibing an exposed film strip with a solution containing a given concentration of the free inhibitor to be tested. Nitrogen burst agitation of the imbibing solution improves the repeatability and effectiveness of inhibitor incorporation. The measured strength obtained by this test serves as an important guide in selecting inhibitors for desired photographic acutance improvements.
Film samples for imbibition testing of inhibitors were prepared having the following schematic layer structure and using a silver bromoiodide emulsion containing 6.4 mole % iodide (numerical values denote coating coverages in mg/m^2 and the silver halide values are for equivalent weights of silver):
Film strips cut from this coated element were exposed through a graduated density test object and a Kodak Wratten 99 (green) filter. Before development a strip was immersed at 38° C. under nitrogen agitation in each of the separate prebaths containing a test inhibitor at 5×10^-5 M concentration in a pH 10 carbonate buffer plus 0.1% dimethylformamide. As controls, each test set included a check strip which was immersed in a prebath containing no inhibitor and strips immersed in prebaths containing the comparison inhibitors phenylmercaptotetrazole (CI-1) and ethylmercaptotetrazole (CI-2). Photographic processing was carried out at 38° C. in the following steps:
The density of each test strip at this same exposure was noted and the inhibition strength number (I.S. No.) calculated using the equation: [formula]
Larger I.S. numbers for given inhibitors indicate stronger inhibition resulting in less dye density formed. Table IV lists these […], as well as calculated log P values, for a number of inhibitors released by compounds of the invention and for comparison inhibitors CI-1 through CI-8. It can be seen that, at equivalent partition coefficient (Log P) values, the inhibitors useful in the invention show higher inhibition strength than the controls. Alternatively, at approximately equal inhibition strength, inhibitors of the invention have lower partition coefficients.
As to `Sc1nnnn1-c1ccccc1` [CI-1, phenylmercaptotetrazole, reference compound], the “Inhibition Strength No.” value turned out to be 80.

`CCCSCCSCc1ccccc1-c1nn[nH]n1` [Compound I-136]: the “Inhibition Strength No.” value came out at 84. As for `CCOc1cc2nn[nH]c2cc1OCC` [CI-8, reference compound], the figure is 35; as for `CCCCCCCCSCCc1nn[nH]n1` [Compound I-21], 95; as for `CCCCSCCN(CCSCCCC)c1nn[nH]n1` [Compound I-37], 66. As for `CCCCCCCSCCCc1nn[nH]n1` [Compound I-22], the “Inhibition Strength No.” value is on record as 94.

Consider `CCn1nnnc1S` [CI-2, reference compound], for which the “Inhibition Strength No.” value is 15. `CCSCCSCCCc1nn[nH]n1` [Compound I-134]: the “Inhibition Strength No.” value stood at 77. As for `CCCCCOc1ccc(-c2nn[nH]n2)cc1` [CI-6, reference compound], the figure is 16. As for `CCCCCCN(CCCCCC)c1nn[nH]n1` [CI-5, reference compound], the figure is 52; as for `CCCSCCOC(=O)c1ccc2[nH]nnc2c1` [Compound I-137], 86.

On to `CSCCSc1ccc2[nH]nnc2c1` [Compound I-139, 6'-(2-methylthioethylthio)benzotriazole], for which the “Inhibition Strength No.” value came out at 88. For the molecule `CCCSc1ccc2[nH]nnc2c1` [Compound I-138], the “Inhibition Strength No.” value is listed as 69. As for `CCCSCCCc1nn[nH]n1` [Compound I-24], the “Inhibition Strength No.” value is listed as 20. The figure for `CCCCCCCCc1nn[nH]n1` [CI-3, reference compound] is 18; for `CCCCCCCCCSc1nn[nH]n1` [CI-4, reference compound] it is 43. On to `CCCCCCCCCSCc1nn[nH]n1` [Compound I-5], for which the “Inhibition Strength No.” value was determined as 95. Consider `CCCCSCCCOc1ccc(-c2nn[nH]n2)cc1` [Compound I-26], for which the “Inhibition Strength No.” value stood at 67. With `O=C(Oc1ccccc1)c1ccc2[nH]nnc2c1` [CI-7, reference compound], the “Inhibition Strength No.” value worked out at 40.

Turning to `CCCCSCCCCCCc1nn[nH]n1` [Compound I-51], the “Inhibition Strength No.” value came out at 83. As for `CCCCCCSCCCc1nn[nH]n1` [Compound I-23], the figure is 77.
